Columns and labels:
nitrotyrosine = test: Nitrotyrosine accumulation in gastrocnemius muscle by western blotting (Example 2); assay type: in vivo, rat; conditions: 14 days after induction of ischemia
Procedure: (§1) Rats were sacrificed 14 days after induction of ischemia for measurement of gastrocnemius muscle eNOS and nitrotyrosine expression. […] Samples were homogenized in liquid nitrogen and transferred to NP-40 lysis buffer, comprised of 50 mM HEPES (pH 7.5), 150 mM NaCl, 10% glycerol, 1.5 mM MgCl2, 1 mM EDTA, 100 mM NaF, 1% NP 40, 1 mM PMSF, and […] aprotinin. The lysates were centrifuged, the supernatant recovered, and the protein concentration determined (Pierce Biotechnology, Rockford, Ill.). […] Membranes were incubated overnight at 4° C. with mouse monoclonal anti-nitrotyrosine (Cayman Chemical Co., Ann Arbor, Mich., 1:1000) or mouse monoclonal anti-eNOS (BD Transduction Laboratories, San Diego, Calif., 1:1000) and then incubated for 2 h with horseradish peroxidase-conjugated anti-mouse IgG antibody (Pierce Biotechnology, 1:5000). Immunoreactive bands were visualized using the enhanced chemiluminescence system (Amersham, Arlington Heights, Ill.). Band density was quantitated by standard densitometry and the intensity of the band of interest expressed as a function of the α-tubulin band.

Ca^2+-dependent NOS [1] = test: Ca^2+-dependent NOS activity in gastrocnemius muscle (Example 2); assay type: in vivo, rat; conditions: 14 days after induction of ischemia
Procedure: (§2) Rats were sacrificed 14 days after induction of ischemia for determination of gastrocnemius muscle NOS activity. […] Muscles were homogenized in ice-cold buffer (250 mM Tris-HCl, pH 7.4, 10 mM EDTA, 10 mM EGTA), centrifuged, and the protein in the supernatant adjusted to 5 μg/ml. Samples were incubated in 10 mM NADPH, 1 μCi/μl ^14C-Arg, 6 mM CaCl2, 50 mM Tris.HCl (pH 7.4), 6 μM BH4, 2 uM FAD, and 2 μM FMN for 30 minutes at 37° C. The reaction was stopped with 400 μl of 50 mM Hepes, pH 5.5, 5 mM EDTA. Identical samples were prepared without CaCl2 and all reactions were performed in duplicate. The radioactivity of the sample eluate was measured and expressed as CPM/μg protein. The Ca^2+-dependent NOS activity, which corresponds to the sum of the endothelial and neural NOS isoforms, was calculated by subtracting the NOS activity measured in the absence of CaCl2) from the NOS activity measured in the presence of CaCl2). The Ca^2+-independent NOS activity corresponds to inflammatory isoform of NOS, or iNOS.

[2] = test system: Ca^2+-independent NOS (iNOS); test: Ca^2+-independent NOS activity in gastrocnemius muscle (Example 2); assay type: in vivo, rat; conditions: 14 days after induction of ischemia
Procedure: as §2

eNOS = eNOS expression in gastrocnemius muscle by western blotting (Example 2); assay type: in vivo, rat; conditions: dietary supplements from 7 days before ischemia; 14 days after induction of ischemia
Procedure: as §1

[3] = test system: p19^Arf, p21^Waf1, and p27^Kip1; test: RT-PCR expression of p19^Arf, p21^Waf1, p27^Kip1 in HSCs; assay type: in vivo, mouse
Procedure: The expression of p15^Ink4b, p16^Ink4a, p18^Ink4c, p19^ARF, P21^Waf1, and p27^Kip1 was determined using RT-PCR, a more sensitive and quantitative assay, in ApoE^−/− and WT HSCs.

HSCs = test: Competitive HSC transplantation, bone marrow repopulation; assay type: in vivo, mouse; conditions: for outcome of competitive transplant with CD45.2 WT HSCs: WT donor mice treated 2 weeks before harvest
Procedure: HSC were purified from freshly harvested bone marrow mononuclear cells as c-Kit^+Sca-1^+CD90.1^lowLin^− by FACS sorting. Recipient mice were C57BL/6 (WT) on standard chow. Recipients underwent lethal irradiation (1100 Rads delivered in 2 doses 3 hr apart). Immediately after the 2nd irradiation, recipients were anesthetized (2% isoflurane) and 10^6 HSC/0.1 ml sterile PBS were transplanted via retro-orbital injection. Mice were followed for 12 weeks before study or administration of AOM.
The functional consequence of this loss of quiescence by competitive transplantation was investigated next, insofar as the presence of quiescent HSC are critical for successful bone marrow reconstitution. HSCs from CD45.2 ApoE^−/− or HCD mice were mixed 1:1 with CD45.1 WT HSCs and then transplanted into lethally irradiated CD45.1 WT recipients.
Activation of p38 MAPK reduces HSC quiescence in Atm^−/− mice. To evaluate this phenomena in hypercholesterolemic mice, ApoE^−/− and WT mice were treated with the selective p38 MAPK inhibitor SB203580 or the MEK 1 inhibitor PD98059 for 2 weeks prior to harvest of HSCs for transplant. CD45.2 ApoE^−/− or WT HSCs with mixed 1:1 with CD45.1 WT HSCs and transplanted into lethally irradiated CD45.1 recipient mice.

PAD patients = conditions: acute or short term supplementation, literature; cited from earlier work
Notch1 = Notch1 expression in HSCs and lymphoid progenitors (Example 5); assay type: in vivo, mouse
Procedure: Cells were stained with monoclonal antibodies conjugated to various fluoroprobes. These antibodies included: Notch1, cKit (2B8), Sca-1 (E13-161.7), CD4 (L3T4), CD8 (53-6.72), CD90.1, CD25, CD44, TCRβ, NK1.1, γδTCR, CD45.1, CD45.2. The lineage cocktail consisted of CD4, CD8, B220 (RA3-6B2), TER-119, Mac-1 (MI/70), and Gr-1 (RB6-8C5). All antibodies were purchased from BD Bioscience (San Diego, Calif.). FACS analysis was carried out on a FACS Diva.
The Notch family is an evolutionarily conserved system of receptors and ligands that play a fundamental role in regulating cell-fate decision in many types of stem and progenitor cells, including HSCs. Notch1 plays a critical role in lymphocyte differentiation, wherein expression of Notch1 favors T cell differentiation. To clarify the effects of hypercholesterolemia on the expression Notch family, the expression of Notch family was screened in HSCs isolated from WT and ApoE^−/− mice. The percentage of HSCs expressing of Notch1 was higher in hypercholesterolemic than WT mice, whereas no differences in Notch2, Notch4, or Delta-like-1 were noted among groups (FIG. 47A). FIGS. 47A-47D show notch 1 expression is greater in HSCs from hypercholesterolemic mice. […] (B) Within the HSC population, a higher percentage of long term-HSCs expressed Notch1 than did short term-HSCs. This difference was evident in both WT and ApoE^−/− mice, although the percentage of short term-HSCs expressing Notch1 was twofold higher in ApoE^−/− than WT mice. […] (D) Treatment of ApoE^−/−, but not WT mice with SB203580 reduced the percentage of HSCs expressing Notch1. m±sd, n=5, *p<0.05 vs. WT, †p<0.05 vs. ApoE or HCD, p<0.05 vs. long-term HSCs.

[4] = test system: ischemic hindlimb of rats; test: Evaluation of muscle necrosis (NBT staining, H&E, muscle weights) (Example 1); assay type: in vivo, rat; conditions: 7 days after AdeNOS or PBS (17 days after induction of ischemia)
Procedure: Muscle necrosis was determined using cut sections of tibialis anterior and gastrocnemius muscle. Muscle samples were cut transversely into 3 pieces (cuts made in 2 mm increment); two sections were stained with nitroblue tetrazolium (NBT). These sections were incubated in phosphate buffered saline (pH 7.4) containing 0.033% NBT (Fischer Biotech, Austin, Tex.) and 0.133% NADH (Roche Diagnostics, Indianapolis, Ind.) for 10 min, and then fixed in 4% paraformaldehyde for 24 hours. The areas of viable (stained) and non-viable (unstained) tissue were quantified using Image Pro software (Media Cybernetics, Bethesda, Md.) and the average taken for each rat. The third cut muscle section was used for H&E staining.

Ca^2+-dependent NOS [5] = test: Ca^2+-dependent NOS activity in gastrocnemius muscle, hindlimb ischemia (Example 1); assay type: in vivo, rat; conditions: 4 days after AdeNOS or PBS (14 days after induction of ischemia)
Procedure: A portion of the gastrocnemius muscle harvested on day 4 after AdeNOS or saline administration (14 days after induction of ischemia) was snap frozen in liquid N2 for subsequent analysis of Ca^2+-dependent NOS activity (EMD Chemicals, Gibbstown, N.J.). 50 μg of muscle protein homogenate was incubated in 10 mM NADPH, 1 μCi/μl ^14C-arginine, 6 mM CaCl2, 50 mM Tris.HCl (pH 7.4), 6 μM BH4, 2 μM FAD, and 2 μM FMN for 30 minutes at 37° C. The reaction was stopped with 400 μl of 50 mM Hepes (pH 5.5) and 5 mM EDTA. Identical samples were prepared without CaCl2 and all reactions were performed in duplicate. The radioactivity of the sample eluate was measured in a liquid scintillation counter. Enzyme activity was expressed as […] per minute per microgram protein (CPM/min/ug). The Ca^2+-NOS activity was calculated by subtracting the NOS activity measured without calcium from the total activity measured in the presence of calcium.

[6] = test system: ischemic hindlimb of rats; test: Laser Doppler perfusion imaging of hindlimb blood flow (Example 1); assay type: in vivo, rat; conditions: days after AdeNOS or PBS administration
Procedure: Hindlimb blood flow was determined by means of laser Doppler imaging (Moor Instruments, Ltd., Devon, United Kingdom). Flow was measured preoperatively, immediately after arterial excision, immediately before AdeNOS or saline administration, and on days 4, 7, 21, and 30 thereafter. Scans were obtained during inhalation of 1% isoflurane while core body temperature was maintained between 36.8-37.2° C. by means of a heating element driven by a rectal temperature probe. Scans were repeated three times and the average for each rat determined. Data were expressed as the ratio of ischemic:non-ischemic hindlimb.

wt MSC [7] = test: Response of wt MSC to adipogenic medium (Oil Red O staining); assay type: cell-based, mouse; conditions: WT MSCs, increased concentrations
Procedure: (§3) Adipocytes were identified by Oil Red O staining. m±sd, n=4, *p<0.05 vs control. […] Endothelial cells were identified by CD31 staining. m±sd, n=4, *p<0.05 vs control, #p<0.05 vs 5 nM.

wt MSC [8] = test: Response of wt MSC to endogenic medium (CD31 staining); assay type: cell-based, mouse; conditions: WT MSCs, increased concentrations
Procedure: as §3

wt MSC [9] = test: Basal PPARγ, adiponectin, eNOS and p-eNOS expression in wt MSC; assay type: cell-based, mouse; conditions: WT MSCs, increased concentrations
Procedure: as §3

wt MSC [10] = test: Nox 4 expression and DCF staining in wt MSC after insulin treatment; assay type: cell-based, mouse; conditions: WT MSCs, increased concentrations
Procedure: as §3

[11] = ApoE^−/− mice, in vivo treatment

Compound: L-arginine α-ketoglutarate
- nitrotyrosine level in the ischemic gastrocnemius muscle (nitrotyrosine): significantly less than the level noted in rats fed normal chow
- Ca^2+-dependent NOS activity in the ischemic gastrocnemius muscle (Ca^2+-dependent NOS [1]): greater than that of rats fed normal chow
- Ca^2+-independent NOS activity in the ischemic gastrocnemius muscle [2]: statistically similar to the normal chow group
- eNOS expression in the ischemic gastrocnemius muscle (eNOS): significantly greater than that of rats fed normal chow

Compound: COc1cccc(-c2cc(=O)c3ccccc3o2)c1N [PD98059]
- HSC expression of p19^Arf, p21^Waf1, and p27^Kip1 [3, 11]: had no effect
- HSC expression of p19^Arf, p21^Waf1, and p27^Kip1 ([3]; WT HSCs): neither drug affected expression of these proteins in WT HSCs
- outcome of competitive transplant with CD45.2 WT HSCs (HSCs): Neither drug affected the outcome

Compound: O=C1O[C@H]([C@@H](O)CO)C(O)=C1O [vitamin C, L-ascorbic acid]
- PAD symptoms (PAD patients): reduce PAD symptoms

Compound: C[S+]([O-])c1ccc(-c2nc(-c3ccncc3)c(-c3ccc(F)cc3)[nH]2)cc1 (stereo not shown) [SB203580]
- percentage of HSCs expressing Notch1 (Notch1; WT mice): did not affect the WT group
- percentage of HSCs expressing Notch1 (Notch1; hypercholesterolemic mice (ApoE^−/−, HCD), in vivo treatment): significantly reduced the percentage of ApoE^−/− HSCs expressing Notch1
- HSC expression of p19^Arf, p21^Waf1, and p27^Kip1 [3, 11]: significantly reduced HSC expression of p19^Arf, p21^Waf1, and p27^Kip1
- HSC expression of p19^Arf, p21^Waf1, and p27^Kip1 ([3]; WT HSCs): neither drug affected expression of these proteins in WT HSCs
- percentage of CD45.2^+ bone marrow mononuclear cells 12 weeks after competitive transplantation (HSCs; ApoE^−/− donor mice treated before HSC harvest (NAC 4 weeks; SB203580, PD98059 2 weeks)): significantly improved the efficacy of ApoE^−/− HSCs in the competitive transplant paradigm
- outcome of competitive transplant with CD45.2 WT HSCs (HSCs): Neither drug affected the outcome

Compound: C[C@H](O)[C@H](O)[C@H]1CNc2nc(N)[nH]c(=O)c2N1 [BH4, tetrahydrobiopterin]
- extent of muscle necrosis (NBT staining) [4]: no effect
- Ca^2+-dependent NOS activity in gastrocnemius muscle (Ca^2+-dependent NOS [5]): no effect
- hindlimb blood flow recovery [6]: no effect

Compound: insulin: insulin treatment of wt MSC
- differentiation towards adipocytes (wt MSC [7]): increased differentiation towards adipocytes
- differentiation towards endothelial cells (wt MSC [8]): decreased differentiation towards endothelial cells
- PPARgamma expression (wt MSC [9]): increased PPARgamma
- p-eNOS expression (wt MSC [9]): decreased p-eNOS expression
- Nox 4 expression and oxidative stress (wt MSC [10]): increased Nox 4 expression and oxidative stress

Source: patent publication US11090305B2, “Methods and compositions to reduce oxidative stress” (University of Massachusetts, priority 2009, dated 2021)
